In US10738057B2, “Tertiary alcohols as PI3K-γ inhibitors” (Incyte Corporation, priority 2017, dated 2020):
pIC50: −log10 of the molar value. Counter-ions that a name gives are not always drawn. Like-named read-outs stand apart in the source and are kept apart here.

How the values were obtained:
[1] = biological target: PI3Kγ (p110γ) Recombinant Human Protein (Homo sapiens (Human), UniProt P48736); test: PI3K-γ scintillation proximity assay; format: biochemical; details: 20 μM PIP2, 2 μM ATP, 13 nM PI3Kγ, 120 min, room temperature
PI3Kγ (p110γ) Recombinant Human Protein, sequence (P48736 whole entry): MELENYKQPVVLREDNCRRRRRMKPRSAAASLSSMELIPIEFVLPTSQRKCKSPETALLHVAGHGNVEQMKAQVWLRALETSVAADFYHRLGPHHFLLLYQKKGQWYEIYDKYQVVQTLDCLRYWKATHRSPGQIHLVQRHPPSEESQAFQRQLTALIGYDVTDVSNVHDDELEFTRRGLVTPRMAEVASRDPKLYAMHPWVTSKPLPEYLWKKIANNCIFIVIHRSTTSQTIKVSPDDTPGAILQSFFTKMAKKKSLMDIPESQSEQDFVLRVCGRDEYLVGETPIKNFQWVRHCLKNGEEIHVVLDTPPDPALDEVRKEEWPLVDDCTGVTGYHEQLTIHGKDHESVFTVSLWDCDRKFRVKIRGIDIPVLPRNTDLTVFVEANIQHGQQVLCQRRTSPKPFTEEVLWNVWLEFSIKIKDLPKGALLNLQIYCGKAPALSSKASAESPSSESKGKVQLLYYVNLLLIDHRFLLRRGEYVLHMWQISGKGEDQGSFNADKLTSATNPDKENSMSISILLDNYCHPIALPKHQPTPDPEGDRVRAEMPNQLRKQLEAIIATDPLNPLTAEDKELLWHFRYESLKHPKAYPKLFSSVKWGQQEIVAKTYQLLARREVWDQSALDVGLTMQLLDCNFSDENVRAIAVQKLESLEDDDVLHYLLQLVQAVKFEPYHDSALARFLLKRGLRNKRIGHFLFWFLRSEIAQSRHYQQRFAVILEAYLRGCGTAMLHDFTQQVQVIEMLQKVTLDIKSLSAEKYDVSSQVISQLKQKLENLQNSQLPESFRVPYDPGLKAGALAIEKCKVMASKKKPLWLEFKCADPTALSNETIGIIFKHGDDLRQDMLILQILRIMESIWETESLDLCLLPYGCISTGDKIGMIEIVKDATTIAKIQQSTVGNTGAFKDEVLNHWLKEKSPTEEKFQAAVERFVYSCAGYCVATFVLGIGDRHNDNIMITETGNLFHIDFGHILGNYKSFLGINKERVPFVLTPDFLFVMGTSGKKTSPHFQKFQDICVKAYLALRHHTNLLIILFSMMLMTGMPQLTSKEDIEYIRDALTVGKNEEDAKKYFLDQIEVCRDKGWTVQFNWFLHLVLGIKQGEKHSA
In short: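 Radiometric SPA in 20 mM MOPS pH 6.7, 10 mM MgCl2, 5 mM DTT, 0.03% CHAPS, 2% DMSO. Stopped with EDTA and WGA SPA beads for scintillation counting. IC50 fitted from % solvent-control activity versus log concentration.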

[2] = system: Phosphorylated Ribosomal Protein S6 (RPS6) in THP-1 cells; test: THP-1 RPS6 ELISA assay; format: cell-based, Human; details: Homo sapiens, serum starved, 2 h compound, 10 nM MCP-1 for 15 min, phospho-RPS6 ELISA, read-out: PI3Kγ_THP1_RPS6_ELISA IC50
In short: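 Serum-starved THP-1 cells (2×10^5/well, RPMI) preincubated with compound 2 h at 37° C, then stimulated with 10 nM MCP-1 for 15 min. Lysates assayed by phospho-RPS6 ELISA, absorbance 450 nm (540 nm correction); IC50 from percent inhibition versus log concentration.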

[3] = biological target: PI3Kδ (p110δ/p85α) Recombinant Human Protein (Homo sapiens (Human), UniProt O00329); test: PI3Kδ scintillation proximity assay; format: biochemical; details: 20 μM PIP2, 2 μM ATP, 3.4 nM PI3Kδ, 120 min, room temperature; read-out: PI3Kδ IC50
PI3Kδ (p110δ/p85α) Recombinant Human Protein, sequence (O00329 whole entry): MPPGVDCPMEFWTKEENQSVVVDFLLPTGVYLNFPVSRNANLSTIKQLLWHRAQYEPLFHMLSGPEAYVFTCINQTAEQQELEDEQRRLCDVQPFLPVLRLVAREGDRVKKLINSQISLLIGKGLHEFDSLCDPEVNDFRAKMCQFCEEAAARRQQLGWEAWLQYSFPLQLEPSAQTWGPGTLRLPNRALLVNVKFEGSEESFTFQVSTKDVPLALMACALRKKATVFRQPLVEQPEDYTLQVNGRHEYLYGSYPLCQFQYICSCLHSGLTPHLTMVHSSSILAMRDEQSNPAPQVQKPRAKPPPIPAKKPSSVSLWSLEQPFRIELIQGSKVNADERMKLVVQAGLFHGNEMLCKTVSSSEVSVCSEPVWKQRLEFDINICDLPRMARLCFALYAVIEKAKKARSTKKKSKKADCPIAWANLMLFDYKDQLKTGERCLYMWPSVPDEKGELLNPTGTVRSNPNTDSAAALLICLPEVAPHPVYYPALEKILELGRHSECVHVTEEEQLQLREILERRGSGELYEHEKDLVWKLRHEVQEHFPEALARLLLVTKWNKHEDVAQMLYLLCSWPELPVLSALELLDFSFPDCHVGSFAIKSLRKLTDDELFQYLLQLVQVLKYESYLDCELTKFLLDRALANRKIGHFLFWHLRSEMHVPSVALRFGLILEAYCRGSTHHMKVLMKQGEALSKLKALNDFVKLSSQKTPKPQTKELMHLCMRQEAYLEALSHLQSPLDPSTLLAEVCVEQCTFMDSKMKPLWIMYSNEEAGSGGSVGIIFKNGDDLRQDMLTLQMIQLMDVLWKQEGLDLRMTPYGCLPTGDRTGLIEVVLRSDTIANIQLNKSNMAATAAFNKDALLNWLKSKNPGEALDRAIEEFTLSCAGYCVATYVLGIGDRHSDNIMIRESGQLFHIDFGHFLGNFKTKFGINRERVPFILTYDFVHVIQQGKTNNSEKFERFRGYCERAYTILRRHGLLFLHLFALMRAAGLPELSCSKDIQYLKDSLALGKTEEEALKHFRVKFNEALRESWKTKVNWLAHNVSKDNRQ
PI3Kδ (p110δ/p85α) Recombinant Human Protein, sequence (P27986 whole entry partner): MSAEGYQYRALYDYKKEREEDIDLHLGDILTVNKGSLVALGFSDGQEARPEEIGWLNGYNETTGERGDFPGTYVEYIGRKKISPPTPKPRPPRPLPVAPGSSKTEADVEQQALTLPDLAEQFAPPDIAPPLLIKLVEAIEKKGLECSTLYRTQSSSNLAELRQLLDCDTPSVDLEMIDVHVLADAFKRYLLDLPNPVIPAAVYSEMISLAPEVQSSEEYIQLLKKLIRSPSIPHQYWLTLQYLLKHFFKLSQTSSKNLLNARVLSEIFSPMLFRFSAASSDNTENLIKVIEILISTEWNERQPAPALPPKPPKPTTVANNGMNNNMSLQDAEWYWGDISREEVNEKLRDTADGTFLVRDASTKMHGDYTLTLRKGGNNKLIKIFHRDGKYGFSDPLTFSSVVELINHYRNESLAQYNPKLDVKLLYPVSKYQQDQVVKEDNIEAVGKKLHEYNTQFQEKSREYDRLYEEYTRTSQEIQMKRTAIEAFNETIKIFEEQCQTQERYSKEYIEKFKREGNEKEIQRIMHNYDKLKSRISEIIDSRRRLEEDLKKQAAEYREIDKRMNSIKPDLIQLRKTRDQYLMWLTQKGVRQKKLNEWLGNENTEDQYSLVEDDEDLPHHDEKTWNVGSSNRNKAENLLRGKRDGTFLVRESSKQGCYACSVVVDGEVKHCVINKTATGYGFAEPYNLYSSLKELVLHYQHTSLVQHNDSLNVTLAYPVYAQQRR
In short: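 Recombinant human p110δ/p85α was run at room temperature in 20 mM MOPS pH 6.7, 10 mM MgCl2, 5 mM DTT, 0.03% CHAPS, 2% DMSO. Substrates were 20 µM PIP2 and 2 µM ATP with [γ-33P]ATP. Product was captured overnight on WGA SPA beads and counted by scintillation; IC50 fitted from percent of solvent control versus log concentration.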

| SMILES | pIC50 [1] | pIC50 ([2]; THP-1, THP-1 cells) | pIC50 [3] | pIC50 ([2]; THP-1 cells) |
| --- | --- | --- | --- | --- |
| Cc1ccc(C(O)(C(N)=O)C(F)(F)F)cc1-c1cnc2c(N)nc(C(=O)NC3(C)CCOC3C)cn12 (stereo not drawn) [Example 84, 8-Amino-3-(5-(3-amino-1,1,1-trifluoro-2-hydroxy-3-oxopropan-2-yl)-2-methylphenyl)-N-(2,3-dimethyltetrahydrofuran-3-yl)imidazo[1,2-a]pyrazine-6-carboxamide, trifluoroacetate] | > 7.00 | 6.30 to 7.00 | 6.30 to 7.00 |  |
| Cc1ccc(C(O)(C(N)=O)C(F)(F)F)cc1-c1cnc2c(N)nc(C(=O)NC3(C(F)(F)F)CCOCC3)cn12 (stereo not drawn) [Example 85, 8-Amino-3-(5-(3-amino-1,1,1-trifluoro-2-hydroxy-3-oxopropan-2-yl)-2-methylphenyl)-N-(4-(trifluoromethyl)tetrahydro-2H-pyran-4-yl)imidazo[1,2-a]pyrazine-6-carboxamide, trifluoroacetate] | > 7.00 | 6.30 to 7.00 | 5.70 to 6.30 |  |
| Cc1nc(N)c2ncc(-c3cc(C(O)(C(F)F)C(F)F)ccc3C)n2n1 [Example 112, 2-(3-(4-Amino-2-methylimidazo[2,1-f][1,2,4]triazin-7-yl)-4-methylphenyl)-1,1,3,3-tetrafluoropropan-2-ol trifluoroacetate salt] | > 7.00 | 6.00 to 6.30 | 5.70 to 6.30 |  |
| Cc1ccc(C(O)(C(=O)O)C(F)(F)F)cc1-c1cnc2c(N)nc(C(F)(F)F)cn12 (stereo not drawn) [Example 120, 2-(3-(8-amino-6-(trifluoromethyl)imidazo[1,2-a]pyrazin-3-yl)-4-methylphenyl)-3,3,3-trifluoro-2-hydroxypropanoic acid] | > 7.00 | < 6.00 | 6.30 to 7.00 |  |
| Cc1ccc(C(O)(C(=O)NC2(C)CNC2)C(F)(F)F)cc1-c1cnc2c(N)nc(C(F)(F)F)cn12 (stereo not drawn) [Example 128, 2-(3-(8-Amino-6-(trifluoromethyl)imidazo[1,2-a]pyrazin-3-yl)-4-methylphenyl)-3,3,3-trifluoro-2-hydroxy-N-(3-methylazetidin-3-yl)propanamide trifluoroacetate salt] | > 7.00 | > 7.00 | > 7.00 |  |
| Cc1ccc(C(O)(C(=O)NC23CC(C2)C3)C(F)(F)F)cc1-c1cnc2c(N)nc(C(F)(F)F)cn12 (stereo not drawn) [Example 129, 2-(3-(8-Amino-6-(trifluoromethyl)imidazo[1,2-a]pyrazin-3-yl)-4-methylphenyl)-N-(bicyclo[1.1.1]pentan-1-yl)-3,3,3-trifluoro-2-hydroxypropanamide trifluoroacetate salt] | > 7.00 | > 7.00 | > 7.00 |  |
| Cc1ccc(C(O)(CNC(=O)CF)C(F)(F)F)cc1-c1cnc2c(N)nc(C(F)(F)F)cn12 (stereo not drawn) [Example 214, N-(2-(3-(8-amino-6-(trifluoromethyl)imidazo[1,2-a]pyrazin-3-yl)-4-methylphenyl)-3,3,3-trifluoro-2-hydroxypropyl)-2-fluoroacetamide trifluoroacetate salt] | > 7.00 |  | 6.30 to 7.00 | 6.30 to 7.00 |
| CNC(=O)C(C)(C)C(O)(c1ccc(C)c(-c2cnc3c(N)nc(C(F)(F)F)cn23)c1)C(F)(F)F (stereo not drawn) [Example 262, 3-(3-(8-Amino-6-(trifluoromethyl)imidazo[1,2-a]pyrazin-3-yl)-4-methylphenyl)-4,4,4-trifluoro-3-hydroxy-N,2,2-trimethylbutanamide] | > 7.00 | < 6.00 | 6.30 to 7.00 |  |
| Cc1ccc(C(C)(O)C(F)(F)Cl)cc1-c1cnc2c(N)nc(C(F)(F)F)cn12 (stereo not drawn) [Example 268, 2-(3-(8-Amino-6-(trifluoromethyl)imidazo[1,2-a]pyrazin-3-yl)-4-methylphenyl)-1-chloro-1,1-difluoropropan-2-ol] | > 7.00 | 6.30 to 7.00 | 6.30 to 7.00 |  |

Now from value to molecule, other results behind:

| pIC50 [1] | pIC50 ([2]; THP-1, THP-1 cells) | pIC50 [3] | SMILES | pIC50 ([2]; THP-1 cells) |
| --- | --- | --- | --- | --- |
| > 7.00 | 6.30 to 7.00 | 6.30 to 7.00 | [2H]C([2H])([2H])c1ccc(C(C)(O)C(F)(F)F)cc1-c1cnc2c(N)nc(-c3cnn(C(CC#N)C4CCC4)c3)cn12 (stereo not drawn) [Example 86, 3-(4-(8-Amino-3-(2-(methyl-d3)-5-(1,1,1-trifluoro-2-hydroxypropan-2-yl)phenyl)imidazo[1,2-a]pyrazin-6-yl)-1H-pyrazol-1-yl)-3-cyclobutylpropanenitrile, trifluoroacetate] |  |
| > 7.00 | 6.30 to 7.00 | > 7.00 | [2H]C([2H])([2H])c1ccc(C(C)(O)C(F)(F)F)cc1-c1cnc2c(N)nc(-c3cnn4c3CCC4)cn12 (stereo not drawn) [Example 87, 2-(3-(8-Amino-6-(5,6-dihydro-4H-pyrrolo[1,2-b]pyrazol-3-yl)imidazo[1,2-a]pyrazin-3-yl)-4-(methyl-d3)phenyl)-1,1,1-trifluoropropan-2-ol, trifluoroacetate] |  |
| > 7.00 | 6.30 to 7.00 | 6.30 to 7.00 | [2H]C([2H])([2H])c1ccc(C(C)(O)C(F)(F)F)cc1-c1cnc2c(N)nc(-c3cnn(C4(CC#N)CC(C(=O)OC)C4)c3)cn12 (stereo not drawn) [Example 88, Methyl 3-(4-(8-amino-3-(2-(methyl-d3)-5-(1,1,1-trifluoro-2-hydroxypropan-2-yl)phenyl)imidazo[1,2-a]pyrazin-6-yl)-1H-pyrazol-1-yl)-3-(cyanomethyl)cyclobutane-1-carboxylate, trifluoroacetate] |  |
| > 7.00 | > 7.00 | > 7.00 | Cc1ccc(C(O)(C(N)=O)C(F)F)cc1-c1cnc2c(N)nc(C(F)(F)F)cn12 (stereo not drawn) [Example 89, 2-(3-(8-Amino-6-(trifluoromethyl)imidazo[1,2-a]pyrazin-3-yl)-4-methylphenyl)-3,3-difluoro-2-hydroxypropanamide] |  |
| > 7.00 | 6.30 to 7.00 | 6.30 to 7.00 | Cc1ccc(C(C)(O)C(F)F)cc1-c1cnc2c(N)nc(-c3cnn(C4(CC#N)CN(C(=O)C5CCC5)C4)c3)cn12 (stereo not drawn) [Example 100, 2-(3-(4-(8-amino-3-(5-(1,1-difluoro-2-hydroxypropan-2-yl)-2-methylphenyl)imidazo[1,2-a]pyrazin-6-yl)-1H-pyrazol-1-yl)-1-(cyclobutanecarbonyl)azetidin-3-yl)acetonitrile] |  |
| > 7.00 | 6.30 to 7.00 | 6.30 to 7.00 | Cc1ccc(C(C)(O)C(F)F)cc1-c1cnc2c(N)nc(-c3cncc(S(C)(=O)=O)c3)cn12 (stereo not drawn) [Example 106, 2-(3-(8-Amino-6-(5-(methylsulfonyl)pyridin-3-yl)imidazo[1,2-a]pyrazin-3-yl)-4-methylphenyl)-1,1-difluoropropan-2-ol] |  |
| > 7.00 | > 7.00 | > 7.00 | Cc1ccc(C(C)(O)C(F)F)cc1-c1cnc2c(N)nc(-c3ccc(B(O)O)cc3)cn12 (stereo not drawn) [Example 108, (4-(8-amino-3-(5-(1,1-difluoro-2-hydroxypropan-2-yl)-2-methylphenyl)imidazo[1,2-a]pyrazin-6-yl)phenyl)boronic acid trifluoroacetate salt] |  |
| > 7.00 | > 7.00 | > 7.00 | CNC(=O)C(O)(c1ccc(C)c(-c2cnc3c(N)nc(C(F)(F)F)cn23)c1)C(F)(F)F (stereo not drawn) [Example 118, 2-(3-(8-Amino-6-(trifluoromethyl)imidazo[1,2-a]pyrazin-3-yl)-4-methylphenyl)-3,3,3-trifluoro-2-hydroxy-N-methylpropanamide] |  |
| > 7.00 | 6.30 to 7.00 | 6.30 to 7.00 | Cc1ccc(C(C)(O)C(F)(F)F)cc1-c1cnc2c(N)nc(C#CC3CC3)cn12 (stereo not drawn) [Example 162, 2-(3-(8-Amino-6-(cyclopropylethynyl)imidazo[1,2-a]pyrazin-3-yl)-4-methylphenyl)-1,1,1-trifluoropropan-2-ol trifluoroacetate salt] |  |
| > 7.00 | > 7.00 | > 7.00 | Cc1ccc(C(O)(C(F)(F)F)C(F)(F)F)cc1-c1cnc2c(N)nc(-c3ccnn3C)cn12 [Example 264, 2-(3-(8-Amino-6-(1-methyl-1H-pyrazol-5-yl)imidazo[1,2-a]pyrazin-3-yl)-4-methylphenyl)-1,1,1,3,3,3-hexafluoropropan-2-ol] |  |
| > 7.00 | > 7.00 | > 7.00 | [2H]C([2H])([2H])c1ccc(C(C)(O)C(F)(F)F)cc1-c1cnc2c(N)nc(-c3ccc(C(C)O)nc3)cn12 (stereo not drawn) [Example 267, 2-(3-(8-Amino-6-(6-(1-hydroxyethyl)pyridin-3-yl)imidazo[1,2-a]pyrazin-3-yl)-4-(methyl-d3)phenyl)-1,1,1-trifluoropropan-2-ol] |  |
| > 7.00 | 6.30 to 7.00 | 6.30 to 7.00 | Cc1ccc(C(C)(O)C(F)(F)F)cc1-c1cnc2c(N)nc(C(=O)NC34CC(C#N)(C3)C4)cn12 (stereo not drawn) [Example 278, 8-Amino-N-(3-cyanobicyclo[1.1.1]pentan-1-yl)-3-(2-methyl-5-(1,1,1-trifluoro-2-hydroxypropan-2-yl)phenyl)imidazo[1,2-a]pyrazine-6-carboxamide trifluoroacetate salt] |  |
